Assay results: patent US20260356849A1, “COMPOUNDS AND METHODS FOR TREATING CANCERS” (CEDARS-SINAI MEDICAL CENTER, priority 2022, published 2026)
“Also recorded” adds a separate entry of the source.

Key:
M2 macrophages (CD206+) = experiment: Flow cytometry of macrophages in CRLM tumors; format: in vivo, mice
Source text: Liver tumors from CRLM model in syngeneic mice were processed for flow cytometry. […] In this subgroup, CD206+ was used to identify M2 macrophages.

HepG2 cells [1] = experiment: Annexin V-FITC/propidium iodide assay HepG2; format: cell-based; settings: 5 μM, 24-48 hours
Procedure: (§1) FIG. 8 depicts, in accordance with various embodiments of the invention, results of an annexin V-FITC/propidium iodide binding assay performed in human and mouse hepatocytes, AML12, HEK293, HepG2, and RKO cells after treatment with 5 μM of a GIT1 inhibitor or DMSO for 24-48 hours (results are shown as mean±SE from at least 3 experiments. *p<0.05 vs. DMSO).
(§2) An annexin V-FITC/propidium iodide (PI) binding assay was performed with flow cytometry. […] Both G2/M arrest and cell death are mechanisms by which compound C3 inhibits cancer cells' growth.

Cyclin D1 = Cyclin D1 protein level in cancer cells; format: cell-based; settings: 10 μM, 24 hours
RKO cells [2] = experiment: Cell cycle flow cytometry RKO; format: cell-based, human; settings: 1-5 μM, 24 hours
HepG2 cells [3] = experiment: Cell cycle flow cytometry HepG2; format: cell-based; settings: 1-5 μM, 24 hours
CyclinB1 = experiment: Cyclin B1 expression by RT-PCR, Western blotting and CHX in HepG2; format: cell-based
Procedure: HepG2 cells were treated with DMSO or compound C3 (2-5 μM) for 24 hours. […] Numbers shown below are mean±SE densitometric values.

cyclin B1/CDK1 = experiment: Cyclin B1/CDK1 activation; format: cell-based
Procedure: HepG2 and RKO cells were treated with 5 μM of compound C3 for 24 hours, followed by co-IP with anti-CDK1 antibody and western blots. […] The densitometric changes are from at least 3 independent experiments in mean±SE; *p<0.05 vs. DMSO. Binding of cyclin BI to CDK1 initiates conformational changes allowing CDK1 to alter its phosphorylation status and to become an active kinase.

Toxicity in C57/BL6 mice = settings: mouse, in vivo
MEK and ERK activity [4] = experiment: Western blot ERK and MEK activity in MC38 cells; format: cell-based; settings: 10 μM, 24 hours
RKO cells [5] = experiment: RKO growth in liver of nude mice; format: in vivo; settings: 25 mg/kg ip daily for 5 days
Procedure: FIG. 39A-FIG. 39D depicts, in accordance with various embodiments of the invention, compound C3 inhibits human CRC growth in liver. RKO cells (2×10^6) stably expressing luciferase were injected into the liver of nude mice. Twenty days later (day 0) DMSO and compound C3 were injected intraperitoneally (ip) in FIG. 39A pilot experiment using 10 mg/kd/d×5 days, rest 2 days and repeat. FIG. 39B 25 mg/kg daily for 5 days and imaged on day 7 using IVIS Spectrum photon-counting device optical imaging system (Xenogen, Alameda, CA.). FIG. 39C graph summarizes luciferase intensity from FIG. 39B. FIG. 39D gross pictures of the livers at day 7 from FIG. 39B, point to tumors *p<0.05.
Compound C3 powder was dissolved in pure DMSO at 50 mg/ml, as a stock store in-80 °C. Stock solution was dissolved in 200 μl 0.9% saline to reach 25 mg/kg. For control group, DMSO was dissolved in 200 μl saline to achieve a concentration of DMSO in saline of 7.5%. RKO cells (2×106) stably expressing luciferase were injected directly into the liver of nude mice. Twenty days later DMSO and Compound C3 were injected intraperitoneally (ip) at a dose of 25 mg/kg daily for 5 days and imaged on day 7.

[6] = tested on: MEK1/2 interaction with GIT1, Raf, and ERK; experiment: Co-IP anti-MEK1/2 in HepG2 and RKO cells; format: cell-based; settings: 10 μM, 24 hours
Source text: GIT1-MAT2B scaffold complex sequesters and activates RAS/RAF/MEK/ERK signaling.

AML12 cells [7] = experiment: Annexin V-FITC/propidium iodide assay AML12; format: cell-based; settings: 5 μM, 24-48 hours
Procedure: as §1, §2

RKO cells [8] = experiment: Migration assay RKO; format: cell-based, human; settings: 1 μM, 24 hours
mouse hepatocytes = experiment: Annexin V-FITC/propidium iodide assay mouse hepatocytes; format: cell-based; settings: 5 μM, 24-48 hours
Procedure: as §1, §2

GIT1 = GIT1 dependence of cyclin B1 and EdU effects; format: cell-based
RKO cells [9] = experiment: Annexin V-FITC/propidium iodide assay RKO; format: cell-based, human; settings: 5 μM, 24-48 hours
Procedure: as §1, §2

[10] = tested on: CRC organoids from AKPS mice; experiment: EdU assay of CRC organoids; format: cell-based; settings: "10M", 24 hours
Procedure: An EdU assay of CRC organoids from AKPS mice (APCF/Fp53F/FKRAS+SMAD4KOCDX2ERT+) was treated with […] of compound C3 for 24 hours.

MEK and ERK activity [11] = experiment: MEK and ERK activity in human hepatocytes; format: cell-based; settings: 10 μM
Procedure: (§3) Treatment of human hepatocytes with 10 μM compound C3 had no effect on MEK or ERK activity.

MEK and ERK activity [12] = experiment: Western blot ERK and MEK activity in RKO cells; format: cell-based, human; settings: 2-10 μM, 24 hours
[13] = tested on: non-malignant (HEK293, AML12) cells; experiment: EdU/MTT growth assay in non-malignant cells; format: cell-based; settings: 10 μM, 24 hours
Procedure: The inventors identified nine inhibitors and perfomed an EdU assay after treating non-malignant (HEK293, AML12) and malignant (HepG2, MzChA-1, HT-29, RKO) cells with varying concentrations of GIT1 inhibitor for 24 hours (results are mean±SE from 3 independent experiments done in duplicates, *p<0.05 vs. DMSO). An MTT assay was also performed after treating primary human and mouse hepatocytes and liver and colon cancer cells with varying concentrations of GIT1 inhibitor for 24 hours (results are mean±SE from 3 independent experiments done in duplicates, *p<0.05 vs. DMSO). […] Percoll may be used to remove dead human hepatocytes.

AML12 cells [14] = experiment: Clonogenic assay AML12; format: cell-based; settings: 1-10 μM, 24 hours then drug free medium 10-20 days
Procedure: RKO, HepG2, and AML12 cells were treated with 1-10 μM compound C3 for 24 hours and maintained in drug free medium for 10-20 days.

MEK and ERK activity [15] = experiment: Western blot ERK and MEK activity in HepG2 cells; format: cell-based; settings: 2-10 μM, 24 hours
Procedure: as §3

CC1(C)Cc2nc3sc4c(=O)n(CC(=O)NCc5ccco5)cnc4c3cc2CO1 [Compound C3, 2-(8,8-Dimethyl-4-oxo-7,10-dihydro-8H-pyrano[3″,4″: 5′,6′]pyrido[3′,2′: 4,5]thieno[3,2-d]pyrimidin-3 (4H)-yl)-N-(2-furylmethyl) acetamide]
M2 macrophages in the tumors (M2 macrophages (CD206+); CD206+, n=6 each group): dramatically reduced M2 macrophages
M1 and CD8+ T cells in the tumors (M2 macrophages (CD206+); strong indication): raised MI and CD8+ T cells
apoptosis, HepG2 (HepG2 cells [1]): significant apoptosis
necrosis, HepG2 (HepG2 cells [1]): significant necrosis
Cyclin D1 protein level, cancer cells (Cyclin D1): lower in cancer cells
G2/M phase, RKO (RKO cells [2]): G2/M phase was significantly increased
percentage of cells in G1 phase, RKO (RKO cells [2]): lowered the percentage of cells in G1 phase
G2/M phase, HepG2 (HepG2 cells [3]): G2/M phase was significantly increased
percentage of cells in G1 phase, HepG2 (HepG2 cells [3]): lowered the percentage of cells in G1 phase
CyclinB1 content (CyclinB1): increases CyclinB1 content; also recorded: led to cyclin B1 accumulation
CyclinB1 mRNA level (CyclinB1; HepG2, 2-5 μM, 24 hours): increases CyclinB1 mRNA level
CyclinB1 protein degradation (CyclinB1; HepG2, cycloheximide, 5 μM): inhibits its protein degradation
CyclinB1 phosphorylation (CyclinB1; associated with nuclear accumulation): promotes CyclinB1 phosphorylation
cyclin B1/CDK1 activation (cyclin B1/CDK1): activated cyclin B1/CDK1
toxicity in C57/BL6 mice (Toxicity in C57/BL6 mice): no toxicity
ERK and MEK activities, MC38 (MEK and ERK activity [4]): lower
overt toxicity (RKO cells [5]): without causing overt toxicity
tumor growth in liver (RKO cells [5]; imaged day 7): effective in reducing tumor growth
RAF/MEK/ERK recruitment [6]: reduced RAF/MEK/ERK recruitment
cell death, AML12 (AML12 cells [7]): does not induce cell death
migration of RKO cells (RKO cells [8]): significant inhibition in migration
cell death, mouse hepatocytes (mouse hepatocytes): does not induce cell death
GIT1 dependence of lower EdU (growth) (GIT1): lower EdU requires GIT1
GIT1 dependence of increase in cyclin B1 level / stabilization (GIT1; n=3): GIT1 dependent; also recorded: increase in cyclin BI level requires GIT1
apoptosis, RKO (RKO cells [9]): significant apoptosis
CRC organoid appearance [10]: does not affect appearance
CRC organoid growth [10]: inhibits CRC organoids growth
MEK or ERK activity, human hepatocytes (MEK and ERK activity [11]): no effect
ERK and MEK activities, RKO (MEK and ERK activity [12]): lower
cytotoxicity in non-malignant cells [13]: not in non-malignant cells
clonogenic potential, AML12 (AML12 cells [14]): no effect on clonogenic potential
ERK and MEK activities, HepG2 (MEK and ERK activity [15]): lower
